# Test results as given in PMC9320067, “Novel Potent and Selective Agonists of the GPR55 Receptor Based on the 3-Benzylquinolin-2(1H)-One Scaffold” (Pharmaceuticals, 2022).
# Like-named read-outs stand apart in the source and are kept apart here.
# Tests used:
# human CB1R = molecular target: T1, human CB1R (Homo sapiens, UniProt P21554); test: [3H]CP55,940 radioligand displacement assay on hCB1R CHO cell membranes; assay type: binding
# T1 construct: HitHunter) 95-0071C2; host or cells: CHO-K1
# Description: (§1) Assays were performed as described previously and summarized here. […] Binding was initiated by the addition of transfected hGPR55, hCB1R or hCB2R CHO cell membranes (25 μg protein per well). All assays were performed at 37°C for 120 min prior to quenching with ice-cold Tris binding buffer followed by vacuum filtration using a 24-well sampling manifold (Brandel Cell Harvester; Brandel, Inc., Gaithersburg, MD, USA) and Brandel GF/B filters. Each reaction well was washed six times with 1.2 mL aliquots of Tris-binding buffer. The filters were air-dried overnight and then placed in 5 mL of scintillation fluid (Ultima Gold XR, Perkin Elmer, Inc., Waltham, MA, USA). Liquid scintillation spectrometry was used for quantifying radioactivity.
# (§2) Data for p-ERK in-cell westerns are shown as fold over vehicle response (i.e., 1). Estimates of Ki, EC50 and Emax were determined using non-linear regression (3 parameters) (GraphPad, Prism, v. 9.0). p < 0.05 was determined to be significant.
# human CB2R = molecular target: T2, human CB2R (Homo sapiens, UniProt P34972); test: [3H]CP55,940 radioligand displacement assay on hCB2R CHO cell membranes; assay type: binding
# T2 construct: host or cells: CHO-K1
# Description: as §1, §2
# hGPR55 [1] = molecular target: T3, hGPR55 (Homo sapiens, UniProt Q9Y2T6); test: p-ERK1/2 activation, in-cell Western, CHO cells expressing hGPR55; assay type: cell-based; details: for Emax, p-ERK1/2 activation: fold over vehicle, CHO cells expressing hGPR55, 30 min, mean ± SEM
# T3 construct: host or cells: CHO-K1
# Description: Downstream signaling by hGPR55 was investigated by quantifying p-ERK activation in the in-cell Western assay.
# Cells were seeded at approximately 2000 cells/well in 96-well plates and treated with 0.1–10 μM compounds for 30 min and were then fixed for 10 min at room temperature with 4% paraformaldehyde. Cells were washed 3 times with 100 μL 1X PBS for 5 min each. Cells were incubated with blocking solution (PBS, 20% Odyssey blocking buffer, and 0.1% TritonX-100) for 1 h at room temperature. Next, cells were exposed to primary antibodies for p-ERK1/2(T202/Y204) (mouse monoclonal IgG, Cat# sc-136521) or ERK1/2 (rabbit polyclonal IgG, Cat# sc-292838) (Santa Cruz Biotechnology, Santa Cruz, CA) diluted (1:200) in blocking solution overnight at 4 °C. Cells were washed 3 times with 100 μL PBS for 5 min each. Cells were exposed to the secondary antibodies goat polyclonal anti-rabbit IgG IR^Dye800-conjugated antibody diluted 1:500 (Li-Cor Biosciences, IgG, Cat# P/S 926-32210, RRID AB-2687825, lot# C50113-18) and goat polyclonal anti-mouse IgG IR^Dye680-conjugated antibody diluted 1:500 (Li-Cor Biosciences, IgG, Cat# P/N 925-68070, RRID AB-2651128, lot# C50113-17) for 1 h at room temperature. Cells were washed 3 times with 100 μL PBS for 5 min each. Analyses were conducted using the Odyssey Imaging system and software (version 3.0; Li-Cor).
# as §2
# hGPR55 [2] = molecular target: T3, hGPR55; test: [3H]CP55,940 radioligand displacement assay on hGPR55 CHO cell membranes; assay type: binding
# Description: as §1, §2
# [3] = CHO cells expressing hGPR55, 30 min treatment, mean (95% CI), n = 6, read-out: EC50 95% CI, p-ERK1/2 activation
# T3 sequence (Q9Y2T6 whole entry): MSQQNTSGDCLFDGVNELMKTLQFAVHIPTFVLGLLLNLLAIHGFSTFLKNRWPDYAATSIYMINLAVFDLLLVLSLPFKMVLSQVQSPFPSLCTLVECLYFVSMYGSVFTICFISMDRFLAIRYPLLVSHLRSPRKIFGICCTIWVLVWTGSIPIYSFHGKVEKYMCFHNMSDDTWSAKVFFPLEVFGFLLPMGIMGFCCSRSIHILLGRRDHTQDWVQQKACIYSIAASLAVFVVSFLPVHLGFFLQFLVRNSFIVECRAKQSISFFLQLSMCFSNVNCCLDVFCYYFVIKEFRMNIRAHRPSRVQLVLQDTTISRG
# T1 sequence (P21554 whole entry): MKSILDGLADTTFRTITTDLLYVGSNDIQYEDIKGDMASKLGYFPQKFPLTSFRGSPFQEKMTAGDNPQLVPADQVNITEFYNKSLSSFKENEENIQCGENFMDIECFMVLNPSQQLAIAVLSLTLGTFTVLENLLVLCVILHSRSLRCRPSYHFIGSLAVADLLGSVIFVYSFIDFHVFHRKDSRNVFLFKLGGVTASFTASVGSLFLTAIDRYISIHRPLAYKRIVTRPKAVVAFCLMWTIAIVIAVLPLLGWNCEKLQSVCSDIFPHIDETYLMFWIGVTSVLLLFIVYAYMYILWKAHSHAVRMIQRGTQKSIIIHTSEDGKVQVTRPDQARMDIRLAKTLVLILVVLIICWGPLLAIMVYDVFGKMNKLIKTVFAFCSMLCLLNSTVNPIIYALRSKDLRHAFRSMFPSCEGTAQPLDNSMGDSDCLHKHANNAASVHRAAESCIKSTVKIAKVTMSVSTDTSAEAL
# T2 sequence (P34972 whole entry): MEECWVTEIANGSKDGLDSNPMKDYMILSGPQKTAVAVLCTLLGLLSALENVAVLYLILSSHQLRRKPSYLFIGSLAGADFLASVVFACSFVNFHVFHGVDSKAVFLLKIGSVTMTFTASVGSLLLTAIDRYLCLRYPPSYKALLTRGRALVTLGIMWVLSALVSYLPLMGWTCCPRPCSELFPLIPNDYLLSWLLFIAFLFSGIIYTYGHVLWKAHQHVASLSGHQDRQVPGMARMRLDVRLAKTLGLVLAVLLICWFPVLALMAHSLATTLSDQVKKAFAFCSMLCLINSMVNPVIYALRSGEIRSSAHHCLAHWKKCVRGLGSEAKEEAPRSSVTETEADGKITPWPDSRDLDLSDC
Structure (SMILES),Ki (human CB1R),melting point,Ki (human CB2R),EC50 (hGPR55 [1]; [3]),"Emax, p-ERK1/2 activation (hGPR55 [1]; n = 6)",Ki (hGPR55 [2]; read-out: Ki hGPR55),EC50 (hGPR55 [1]),Ki (hGPR55 [2])
"CCCCc1cc(O)c2cc(Cc3ccccc3O)c(=O)n(C)c2c1 [Compound 4, 7-n-Butyl-5-hydroxy-3-(2-hydroxybenzyl)-1-methylquinolin-2(1H)-one]",29 nM,223 to 225 °C,7.9 nM,11 nM,1.3 ± 0.03 Fold,7.1 nM,–,–
"C=C(C)[C@@H]1CCC(C)=C[C@H]1c1c(C)cc(O)cc1O [Compound O-1602, O-1602, reference compound]",–,–,–,61 nM,1.3 ± 0.03 Fold,10 nM,–,–
"CCCCc1cc(OC)c2cc(Cc3ccccc3OC)c(=O)[nH]c2c1 [Compound 1, 7-n-Butyl-5-methoxy-3-(2-methoxybenzyl)quinolin-2(1H)-one]",> 10000 nM,208 to 210 °C,> 10000 nM,6.4 nM,1.5 ± 0.06 Fold,14 nM,–,–
"CCCCCCC(C)(C)c1ccc([C@@H]2C[C@H](O)CC[C@H]2CCCO)c(O)c1 [CP55,940, reference compound]",–,–,–,–,–,–,4.2 nM,13 nM
"CCCCc1cc(O)c2cc(Cc3ccccc3O)c(=O)[nH]c2c1 [Compound 3, 7-n-Butyl-5-hydroxy-3-(2-hydroxybenzyl)quinolin-2(1H)-one]",5.1 nM,252 to 254 °C,> 10000 nM,1.4 nM,1.2 ± 0.04 Fold,6.2 nM,–,–
"CCCCc1cc(OC)c2cc(Cc3ccccc3OC)c(=O)n(C)c2c1 [Compound 2, 7-n-Butyl-5-methoxy-3-(2-methoxybenzyl)-1-methylquinolin-2(1H)-one]",> 10000 nM,78 to 80 °C,6.9 nM,1.1 nM,1.4 ± 0.07 Fold,1.2 nM,–,–
